Compound: CCCS(=O)(=O)Nc1ccc(F)c(C(=O)c2c[nH]c3ncc(-c4ccc(Cl)cc4)cc23)c1F [Vemurafenib] + C[C@@H](Oc1cc(-c2cnn(C3CCNCC3)c2)cnc1N)c1c(Cl)ccc(F)c1Cl [Crizotinib] (partner 1 µM)
Test: relative viability (nuclei count vs DMSO), 5 days (fraction); higher = more cells survive
Details: first compound 0.03162 µM
Outline: (§1)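 Lung cancer cell lines, seeded in 1536-well plates, were treated the following day by pin tool with a single drug or with five library-drug doses (not always all listed) in √10 steps on top of a fixed anchor-drug dose. Cells were fixed and nuclei stained in one step after 5 days, and nuclei were counted. Relative viability is the nuclei count for treated wells divided by that for vehicle wells, reported as medians of duplicate plates.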

Q: H3255 was tested. Which relative viability did it give?
A: 0.883

Q: With NCI-H1975 as the cell line, how does the relative viability read?
A: 0.955

Q: For PC-14, which relative viability is on record?
A: 0.749

Q: Which relative viability does the source give for NCI-H1437 here?
A: 0.801

Q: How did the relative viability turn out when HOP-62 was run?
A: 0.905

Q: Which relative viability does the source give for BEN here?
A: 0.812

Q: Which relative viability does the source give for LOU-NH91 here?
A: 0.691

Q: With NCI-H661 as the cell line, how does the relative viability read?
A: 0.819

Q: Which relative viability does the source give for NCI-H1651 here?
A: 0.875

Q: Which relative viability does the source give for PC-3 [JPC-3] here?
A: 0.91

Q: How did the relative viability turn out when SW 1573 was run?
A: 0.628

Q: With LK-2 as the cell line, how does the relative viability read?
A: 0.193

Q: How did the relative viability turn out when NCI-H2405 was run?
A: 0.865

Q: With NCI-H1993 as the cell line, how does the relative viability read?
A: 0.906

Q: For ChaGo-K-1, which relative viability is on record?
A: 1.07

Q: Which relative viability does the source give for NCI-H1355 here?
A: 1

Q: With NCI-H1915 as the cell line, how does the relative viability read?
A: 0.874

Q: With NCI-H838 as the cell line, how does the relative viability read?
A: 0.761

Q: For A-427, which relative viability is on record?
A: 0.819

Q: How did the relative viability turn out when NCI-H2009 was run?
A: 1.02

Q: For ABC-1, which relative viability is on record?
A: 1.01

Q: How did the relative viability turn out when EKVX was run?
A: 0.842

Q: Which relative viability does the source give for NCI-H2087 here?
A: 0.844

Q: How did the relative viability turn out when NCI-H1734 was run?
A: 0.665

Q: For LCLC-103H, which relative viability is on record?
A: 1.06

Q: LU99A was tested. Which relative viability did it give?
A: 0.531

Q: For NCI-H460, which relative viability is on record?
A: 0.808

Q: For NCI-H2170, which relative viability is on record?
A: 1.09

Q: With SK-LU-1 as the cell line, how does the relative viability read?
A: 0.855

Q: COR-L23 was tested. Which relative viability did it give?
A: 0.6

Q: Which relative viability does the source give for HCC-15 here?
A: 0.75

Q: How did the relative viability turn out when NCI-H1944 was run?
A: 1.03

Q: With EMC-BAC-2 as the cell line, how does the relative viability read?
A: 0.703

Q: Which relative viability does the source give for LC-2-ad here?
A: 0.315

Same assay, conditions: first compound 0.1 µM

Q: How did the relative viability turn out when NCI-H1975 was run?
A: 0.926

Q: With NCI-H1437 as the cell line, how does the relative viability read?
A: 0.937

Q: Which relative viability does the source give for HOP-62 here?
A: 0.987

Q: Which relative viability does the source give for BEN here?
A: 0.9

Q: LOU-NH91 was tested. Which relative viability did it give?
A: 0.515

Q: How did the relative viability turn out when NCI-H661 was run?
A: 1.07

Q: Which relative viability does the source give for NCI-H1651 here?
A: 0.869

Q: With SW 1573 as the cell line, how does the relative viability read?
A: 0.941

Q: Which relative viability does the source give for LK-2 here?
A: 0.202

Q: With NCI-H2405 as the cell line, how does the relative viability read?
A: 0.827

Q: ChaGo-K-1 was tested. Which relative viability did it give?
A: 1.14

Q: For NCI-H1355, which relative viability is on record?
A: 0.963

Q: NCI-H1915 was tested. Which relative viability did it give?
A: 0.908

Q: How did the relative viability turn out when NCI-H838 was run?
A: 0.783

Q: A-427 was tested. Which relative viability did it give?
A: 0.983

Q: With NCI-H2009 as the cell line, how does the relative viability read?
A: 0.924

Q: How did the relative viability turn out when ABC-1 was run?
A: 1.21

Q: Which relative viability does the source give for NCI-H2087 here?
A: 1

Q: Which relative viability does the source give for NCI-H1734 here?
A: 0.684

Q: Which relative viability does the source give for LCLC-103H here?
A: 1.06

Q: With LU99A as the cell line, how does the relative viability read?
A: 0.489

Q: How did the relative viability turn out when NCI-H460 was run?
A: 0.809

Q: For NCI-H2170, which relative viability is on record?
A: 0.752

Q: With SK-LU-1 as the cell line, how does the relative viability read?
A: 0.905

Q: How did the relative viability turn out when COR-L23 was run?
A: 0.524

Q: With HCC-15 as the cell line, how does the relative viability read?
A: 0.803

Q: For NCI-H1944, which relative viability is on record?
A: 0.816

Q: Which relative viability does the source give for EMC-BAC-2 here?
A: 0.729

Q: For LC-2-ad, which relative viability is on record?
A: 0.461

Same assay, conditions: first compound 0.3162 µM

Q: For H3255, which relative viability is on record?
A: 0.865

Q: For NCI-H1975, which relative viability is on record?
A: 0.837

Q: PC-14 was tested. Which relative viability did it give?
A: 0.849

Q: For NCI-H1437, which relative viability is on record?
A: 0.895

Q: How did the relative viability turn out when HOP-62 was run?
A: 0.94

Q: For BEN, which relative viability is on record?
A: 0.603

Q: For NCI-H1651, which relative viability is on record?
A: 0.806

Q: For PC-3 [JPC-3], which relative viability is on record?
A: 1.01

Q: SW 1573 was tested. Which relative viability did it give?
A: 1.01

Q: For LK-2, which relative viability is on record?
A: 0.208

Q: For NCI-H1993, which relative viability is on record?
A: 0.935

Q: Which relative viability does the source give for NCI-H1355 here?
A: 0.992

Q: How did the relative viability turn out when NCI-H1915 was run?
A: 0.853

Q: A-427 was tested. Which relative viability did it give?
A: 0.919

Q: NCI-H2009 was tested. Which relative viability did it give?
A: 0.754

Q: ABC-1 was tested. Which relative viability did it give?
A: 1.2

Q: How did the relative viability turn out when EKVX was run?
A: 1

Q: With NCI-H1734 as the cell line, how does the relative viability read?
A: 0.579

Q: With LCLC-103H as the cell line, how does the relative viability read?
A: 1.01

Q: Which relative viability does the source give for LU99A here?
A: 0.516

Q: With NCI-H460 as the cell line, how does the relative viability read?
A: 0.692

Q: For NCI-H2170, which relative viability is on record?
A: 1.15

Q: How did the relative viability turn out when SK-LU-1 was run?
A: 0.664

Q: For COR-L23, which relative viability is on record?
A: 0.597

Q: Which relative viability does the source give for HCC-15 here?
A: 0.699

Q: How did the relative viability turn out when NCI-H1944 was run?
A: 1.09

Q: EMC-BAC-2 was tested. Which relative viability did it give?
A: 0.678

Q: How did the relative viability turn out when LC-2-ad was run?
A: 0.377

Same assay, conditions: first compound 1 µM

Q: H3255 was tested. Which relative viability did it give?
A: 0.808

Q: For NCI-H1975, which relative viability is on record?
A: 1.02

Q: PC-14 was tested. Which relative viability did it give?
A: 0.852

Q: Which relative viability does the source give for NCI-H1437 here?
A: 0.906

Q: HOP-62 was tested. Which relative viability did it give?
A: 0.862

Q: BEN was tested. Which relative viability did it give?
A: 0.817

Q: How did the relative viability turn out when LOU-NH91 was run?
A: 0.752

Q: NCI-H661 was tested. Which relative viability did it give?
A: 0.949

Q: How did the relative viability turn out when NCI-H1651 was run?
A: 0.795

Q: PC-3 [JPC-3] was tested. Which relative viability did it give?
A: 1.01

Q: For SW 1573, which relative viability is on record?
A: 0.722

Q: LK-2 was tested. Which relative viability did it give?
A: 0.245

Q: With NCI-H2405 as the cell line, how does the relative viability read?
A: 0.766

Q: NCI-H1993 was tested. Which relative viability did it give?
A: 0.818

Q: For ChaGo-K-1, which relative viability is on record?
A: 1.13

Q: For NCI-H1355, which relative viability is on record?
A: 1.05

Q: With NCI-H1915 as the cell line, how does the relative viability read?
A: 0.769

Q: With NCI-H838 as the cell line, how does the relative viability read?
A: 0.928

Q: Which relative viability does the source give for A-427 here?
A: 0.815

Q: Which relative viability does the source give for NCI-H2009 here?
A: 0.962

Q: How did the relative viability turn out when ABC-1 was run?
A: 0.997

Q: For EKVX, which relative viability is on record?
A: 0.968

Q: For NCI-H2087, which relative viability is on record?
A: 0.79

Q: How did the relative viability turn out when NCI-H1734 was run?
A: 0.516

Q: How did the relative viability turn out when LCLC-103H was run?
A: 1.09

Q: LU99A was tested. Which relative viability did it give?
A: 0.526

Q: With NCI-H460 as the cell line, how does the relative viability read?
A: 0.942

Q: How did the relative viability turn out when NCI-H2170 was run?
A: 1.14

Q: Which relative viability does the source give for SK-LU-1 here?
A: 0.72

Q: With COR-L23 as the cell line, how does the relative viability read?
A: 0.59

Q: With HCC-15 as the cell line, how does the relative viability read?
A: 0.81

Q: For NCI-H1944, which relative viability is on record?
A: 1.06

Q: How did the relative viability turn out when EMC-BAC-2 was run?
A: 0.681

Q: LC-2-ad was tested. Which relative viability did it give?
A: 0.392

Compound: COc1cccc2cc(-c3nc([C@H]4CC[C@H](C(=O)O)CC4)n4ncnc(N)c34)[nH]c12 [OSI-027] + Cc1nc(Nc2ncc(C(=O)Nc3c(C)cccc3Cl)s2)cc(N2CCN(CCO)CC2)n1 [Dasatinib] (partner 0.075 µM)
Test: as above
Details: first compound 0.01 µM
Outline: as §1

Q: H3255 was tested. Which relative viability did it give?
A: 0.291

Q: Which relative viability does the source give for NCI-H1975 here?
A: 0.309

Q: PC-14 was tested. Which relative viability did it give?
A: 0.237

Q: How did the relative viability turn out when NCI-H1437 was run?
A: 0.421

Q: Which relative viability does the source give for HOP-62 here?
A: 0.6

Q: For BEN, which relative viability is on record?
A: 0.304

Q: How did the relative viability turn out when LOU-NH91 was run?
A: 0.533

Q: NCI-H661 was tested. Which relative viability did it give?
A: 0.664

Q: NCI-H1651 was tested. Which relative viability did it give?
A: 0.405

Q: Which relative viability does the source give for PC-3 [JPC-3] here?
A: 0.883

Q: Which relative viability does the source give for SW 1573 here?
A: 0.379

Q: How did the relative viability turn out when LK-2 was run?
A: 0.343

Q: For NCI-H2405, which relative viability is on record?
A: 0.2

Q: NCI-H1993 was tested. Which relative viability did it give?
A: 0.516

Q: For ChaGo-K-1, which relative viability is on record?
A: 0.515

Q: Which relative viability does the source give for NCI-H1355 here?
A: 0.718

Q: Which relative viability does the source give for NCI-H1915 here?
A: 0.289

Q: Which relative viability does the source give for NCI-H838 here?
A: 0.283

Q: How did the relative viability turn out when A-427 was run?
A: 0.679

Q: For NCI-H2009, which relative viability is on record?
A: 0.271

Q: With ABC-1 as the cell line, how does the relative viability read?
A: 0.656

Q: With EKVX as the cell line, how does the relative viability read?
A: 0.516

Q: With NCI-H2087 as the cell line, how does the relative viability read?
A: 0.856

Q: NCI-H1734 was tested. Which relative viability did it give?
A: 0.473

Q: For LCLC-103H, which relative viability is on record?
A: 0.48

Q: For LU99A, which relative viability is on record?
A: 0.519

Q: With NCI-H460 as the cell line, how does the relative viability read?
A: 0.568

Q: Which relative viability does the source give for NCI-H2170 here?
A: 0.635

Q: For SK-LU-1, which relative viability is on record?
A: 0.169

Q: With COR-L23 as the cell line, how does the relative viability read?
A: 0.513

Q: HCC-15 was tested. Which relative viability did it give?
A: 0.551

Q: For NCI-H1944, which relative viability is on record?
A: 0.192

Q: How did the relative viability turn out when EMC-BAC-2 was run?
A: 0.296
